The values that follow come from patent US8003312B2, “Multiplex cellular assays using detectable cell barcodes” (The Board of Trustees of the Leland Stanford Junior …, priority 2007, dated 2011).

Molecules are shown by their SMILES.

Holding throughout (type): cell-based, human
For one assay, the system named is Stat1 phosphorylation. Description: 96-well FCB drug screen in Jurkat cells: Stat1 phosphorylation induced by IFN-γ. As to conditions: 20 μM, 45 min before stimulation with anti-CD3, anti-CD28 and IFN-γ for 5 min. Here is the method: (§1) FIG. 5. Use of FCB in drug screening platforms. […] (a) Layout of screening experiment. Jurkat cells were treated with 70 known small-molecule kinase or phosphatase inhibitors (20 μM), Jak inhibitor I (2 μM) or U0126 (20 μM) for 45 min before stimulation with 5 μg/ml anti-CD3 and anti-CD28 and 10 ng/ml IFN-γ for 5 min. (b) FCB setup for barcoding of 96-well plate. After fixation, cells were barcoded with Alexa 700-NHS (0, 0.06, 0.25 or 1 μg/ml) to delineate the four quadrants of the 96-well plate. Each quadrant was subdivided into four rows labeled with Pacific Blue-NHS (0, 0.04, 0.2 or 1 μg/ml) and six columns labeled with Alexa 488-NHS (0, 0.02, 0.06, 0.18, 0.5 or 1.5 μg/ml). Shown are pseudocolor FACS plots of the actual gating scheme used to deconvolute the samples in quadrant 4, row D (bottom right six samples in the plate). […] Wells with black triangles were excluded from the analysis due to high fluorescence of the drug in the phospho-protein fluorescence channels. Colored squares are drawn over wells analyzed in d. […]
(§2) Because most cell-based high-throughput screens use 96-well microtiter plates, we next addressed the question whether the technique could be adapted to a 96-well plate. […] We also calculated the Z′ factor from these samples, and it was 0.71 for Stat1 and 0.69 for ERK, indicating robust assay performance. […]

The next assay deals with ERK phosphorylation. Description: 96-well FCB drug screen in Jurkat cells: T-cell receptor-mediated ERK phosphorylation. As to conditions: 20 μM, 45 min before stimulation with anti-CD3, anti-CD28 and IFN-γ for 5 min. On the procedure:
as §1, §2

The subject of assay [1] is Stat1 and ERK phosphorylation. Description: Titration of four screening hits in Jurkat cells using six-sample FCB (pStat1, pERK). As to conditions: 30 min before IFN-γ (10 ng/ml) and anti-CD3/28 (5 μg/ml each). Here is the method: FIG. 8. Detailed titration of four hits from Jurkat drug screening experiment (FIG. 5). a) Four compounds: Bay11-7082, Indirubin-3-monoxime, PP2, and ZM449829 were added to Jurkat cells at different concentrations for 30 min prior to stimulation with IFN-γ (10 ng/ml) and anti-CD3/28 (5 μg/ml each). The cells were fixed and permeabilized, then stained with pStat1 Ax647 and pERK Ax488 antibodies. Percent inhibition of phosphorylation was plotted against concentration of drugs and fitted with a logistic regression curve to obtain IC50 values. Numbers in the top right of each plot are the IC50 value in μM units. b) Lysates were prepared from the same cells used for phospho flow and analyzed by western blot with pStat1 and pERK antibodies. Drugs were applied at 20 μM (same concentration as initial screen) for western blot analysis.
Because a few of these hits were unexpected, we performed titration experiments using six-sample FCB on four of the compounds to validate the results (FIG. 8).
We calculated fold change of phosphorylation upon stimulation by dividing median fluorescence intensity (MFI) of stimulated samples by the MFI of unstimulated samples: FC=MFIstim/MFIunstim. For heat map analysis, FC was converted to log2 values to enhance visualization and so that samples showing no change have a value of zero. To measure drug activity, we calculated percent inhibition as follows: Percent Inhibition=1−((MFItreated ? MFIunstim)/(MFIstim ? MFIunstim)), where “treated” denotes drug treated (and stimulated) samples, “stim” denotes control stimulated (non drug treated) samples, and “unstim” denotes control unstimulated (non drug treated) samples. We calculated Z′-factor from control stimulated and unstimulated samples by the following: Z′-factor=1 ? ((3[…]SDstim 3[…]SDunstim)/(meanstim ? meanunstim)), where “SD” denotes standard deviation of the mean, and “mean” denotes the mean of either stimulated or unstimulated MFI values. Z′-factor is an indication of the robustness and suitability of an assay for high throughput screening, with values from 0.5 to 1 indicating an excellent assay, 0 to 0.5 indicating a usable assay, and less than 0 indicating the assay has too much noise or inadequate dynamic range.

As to `Cc1ccc(S(=O)(=O)/C=C/C#N)cc1` [Bay11-7082], in the assay with Stat1 phosphorylation, the “inhibition of Stat1 phosphorylation” value is on record as “inhibited Stat1 phosphorylation potently”. In addition, the “inhibition of ERK phosphorylation” value in the assay with ERK phosphorylation came to 50%. The “selectivity between ERK and Stat1 phosphorylation” value in assay [1] is “little selectivity”.
